Data from US8680282B2, “Cyclic inhibitors of carnitine palmitoyltransferase and treating cancer” (University Health Network, priority 2007, dated 2014).

Experiments:
human CPT1A = molecular target: T1, human CPT1A (Homo sapiens, UniProt P50416); assay: Human CPT1A LC/MS assay; format: biochemical; conditions: human CPT1A LC/MS assay, dose response format
T1 construct: made in house; host or cells: Saccharomyces cerevisiae (pESC-trp) or cultured mammalian cells (pCDNA3.1); mitochondrial extract
T1 sequence (P50416 1-773): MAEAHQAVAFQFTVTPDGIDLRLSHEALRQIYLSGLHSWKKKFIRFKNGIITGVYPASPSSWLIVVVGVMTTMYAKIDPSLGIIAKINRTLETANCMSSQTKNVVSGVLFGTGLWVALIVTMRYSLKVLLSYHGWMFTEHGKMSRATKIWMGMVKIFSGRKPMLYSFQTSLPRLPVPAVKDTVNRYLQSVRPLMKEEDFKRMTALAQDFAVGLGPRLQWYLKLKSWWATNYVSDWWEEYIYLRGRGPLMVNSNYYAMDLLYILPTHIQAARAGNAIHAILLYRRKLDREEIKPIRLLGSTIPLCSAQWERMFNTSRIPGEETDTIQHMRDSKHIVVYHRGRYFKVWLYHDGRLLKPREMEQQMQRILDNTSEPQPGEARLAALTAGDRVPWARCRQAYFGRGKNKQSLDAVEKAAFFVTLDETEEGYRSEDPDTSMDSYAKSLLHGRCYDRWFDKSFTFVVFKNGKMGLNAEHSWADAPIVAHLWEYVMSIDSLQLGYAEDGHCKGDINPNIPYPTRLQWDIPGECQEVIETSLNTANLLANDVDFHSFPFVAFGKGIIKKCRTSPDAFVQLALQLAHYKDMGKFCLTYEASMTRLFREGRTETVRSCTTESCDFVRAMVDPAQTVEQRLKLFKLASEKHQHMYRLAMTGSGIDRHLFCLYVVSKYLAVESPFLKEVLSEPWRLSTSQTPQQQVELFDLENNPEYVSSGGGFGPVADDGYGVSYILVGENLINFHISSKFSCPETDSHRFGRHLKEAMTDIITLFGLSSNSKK
Text: Nucleotide sequences encoding human CPT1 enzymes were individually cloned into the yeast expression vector pESC-trp at the Cla1 (5′ terminus) and Pac1 (3′ terminus) restriction sites by PCR amplification of the open reading frame using oligonucleotide primers designed to encode the wild-type CPT1 protein sequence. Standard molecular biology techniques were used to transform and express the CPT1 proteins in the yeast Saccharomyces cerevisiae. The yeast cells were lysed by enzymatic degradation of the cell wall by Zymolase, and the mitochondria were isolated by standard biochemical techniques. The integrity of the isolated mitochondria was monitored by determining the activity of succinate dehydrogenase in the mitochondrial preparations. The mitochondrial extracts were stored at −80° C. in buffer containing 10 mM HEPES pH 7.4 and 250 mM sucrose.
Human CPT1 (A, B, C) genes were additionally cloned into the pCDNA3.1 vector individually for expression in cultured mammalian cells. Cells expressing the exogenous CPT1A were identified and grown under standard conditions. Mammalian cells were harvested, and mitochondrial extracts prepared using standard biochemical methods. The mitochondrial extracts were stored at −80° C. in buffer containing 10 mM HEPES pH 7.4 and 250 mM sucrose.
Assays were performed in 96-well plate format. Each 100 μL reaction contained 40 mM KCl, 50 mM TrisHCl pH 7.5, and 250 mM mannitol (Assay Buffer), and 1.6 μg protein of an extract, 20 μM palmitoyl-CoA, 50 μM L-carnitine, and 10 ug/mL BSA. Reactions were incubated at room temperature and stopped after 10 minutes by extraction with 200 μL of water saturated n-butanol containing myristoyl carnitine (500 nM) as an internal standard. The samples were thoroughly mixed, and the phases separated by centrifugation. Samples were prepared for analysis with a 10 fold dilution of the n-butanol phase containing the reaction product palmitoyl carnitine into a 50:50 (acetonitrile:water) solvent for analysis. 5 μL of prepared sample was separated on a Phenomenex Jupiter 5μ C4 reverse-phase column using an Agilent 1100 HPLC with a gradient from 50% acetonitrile (0.5% acetic acid) to 100% acetonitrile and quantified by detection with a Bruker Esquire 3000plus mass spectrometer. The abundance of the palmitoyl carnitine product was determined relative to the internal standard and the actual quantity of palmitoyl carnitine can be determined from a standard curve prepared using the n-butanol solution containing the internal standard.
Compounds were evaluated in two formats, a screening format, and a dose response format. The screening format was performed by adding 25 μL compound in 20% DMSO and Assay Buffer to 25 μL of extract containing […] and Assay Buffer, followed by a 10 minute incubation at room temperature. 50 μL of 40 μM palmitoyl-CoA in Assay Buffer was added to the reaction mixture, mixed and incubated for 10 minutes at room temperature. A negative control for activity was also performed where the carnitine was omitted from the reaction. A positive control for activity was also performed by omitting compound from the solution containing 20% DMSO and Assay Buffer. The reaction mixture was extracted and analyzed as described above. The inhibition by compound was determined by comparing the control relative activity to the relative activity observed in wells containing the compound. Relative activity was determined by subtracting the relative intensity (area palmitoyl carnitine/area myristoyl carnitine) observed in the negative control from the relative intensity observed in the experimental well, and dividing by the relative activity observed in the positive control.
[formula] Compound characterization by dose response format was performed using the above described assay conditions and a 16 point compound titration in 2 fold compound dilution steps. The DMSO concentration was kept constant at 20% (v/v) for all compound concentrations.

A549 = assay: Cancer cell growth inhibition, SRB assay; format: cell-based, human; parameters: Percentage of Growth Inhibition: scale not given here; conditions: SRB at Day 6; for GI50: Homo sapiens, 144 h, A549 (Lung), triplicate; for Percentage of Growth Inhibition: A549, at 10 μM, NE = no activity at 10 micromolar
SW480 = assay: Cancer cell growth inhibition, SRB assay; format: cell-based, human; conditions: SRB at Day 6; for GI50: Homo sapiens, 144 h, SW480 (Colon), triplicate; for Percentage of Growth Inhibition: SW480, at 10 μM, NE = no activity at 10 micromolar

Question: Which results are given for `CCCCCCCCc1ccc(NC(=O)NC2(CC(=O)O)CC[N+](C)(C)CC2)cc1` [Example S2, 4-(Carboxymethyl)-1,1-dimethyl-4-(3-(4-octylphenyl)ureido)piperidinium 2,2,2-trifluoroacetate]?
Answer: IC50 (human CPT1A): 10 to 100 µM; GI50 (A549): 99 µM; GI50 (SW480): 0.7 µM

Question: Which results are given for `CCCCCc1ccc(S(=O)(=O)NC2(CC(=O)O)CCN(C)CC2)cc1` [Example S3, 4-(carboxymethyl)-1-methyl-4-(4-pentylphenylsulfonamido)piperidinium 2,2,2-trifluoroacetate]?
Answer: IC50 (human CPT1A): 10 to 100 µM; Percentage of Growth Inhibition (SW480): 0.0383%

Question: For `CCCCCc1ccc(S(=O)(=O)NC2(CC(=O)O)CC[N+](C)(C)CC2)cc1` [Example S4, 4-(Carboxymethyl)-1,1-dimethyl-4-(4-pentylphenylsulfonamido)piperidinium 2,2,2-trifluoroacetate], which IC50 (human CPT1A) is on record?
Answer: ≤ 1 µM

Question: And the GI50 (SW480)?
Answer: > 50 µM

Question: Which IC50 (human CPT1A) does the source give for `C[N+]1(C)CCC(CC(=O)O)(NC(=O)c2ccc(CCc3ccccc3)o2)CC1` [Example S5, 4-(Carboxymethyl)-1,1-dimethyl-4-(5-phenethylfuran-2-carboxamido)-piperidinium 2,2,2-trifluoroacetate] here?
Answer: 1 to 10 µM

Question: `C[N+]1(C)CCC(CC(=O)O)(NC(=O)c2ccc(C#Cc3ccccc3)o2)CC1` [Example S6, 4-(Carboxymethyl)-1,1-dimethyl-4-(5-(phenylethynyl)furan-2-carboxamido)-piperidinium 2,2,2-trifluoroacetate] was tested. Which IC50 (human CPT1A) did it give?
Answer: 100 to 1000 µM

Question: What about the “Percentage of Growth Inhibition” value (SW480) of the same compound?
Answer: 0.03677%

Question: Which results are given for `CCCCCCCCc1ccc(NS(=O)(=O)NC2(CC(=O)O)CCN(C)CC2)cc1` [Example S7, 4-(carboxymethyl)-1-methyl-4-(N-(4-octylphenyl)sulfamoylamino)-piperidinium 2,2,2-trifluoroacetate]?
Answer: IC50 (human CPT1A): 10 to 100 µM; GI50 (A549): 52 µM; GI50 (SW480): 68 µM

Question: For `CCCCCCCCc1ccc(NS(=O)(=O)NC2(CC(=O)O)CC[N+](C)(C)CC2)cc1` [Example S8, 4-(carboxymethyl)-1,1-dimethyl-4-(N-(4-octylphenyl)sulfamoylamino)piperidinium 2,2,2-trifluoroacetate], which IC50 (human CPT1A) is on record?
Answer: 1 to 10 µM

Question: What about the GI50 (A549) of the same compound?
Answer: 10 µM

Question: What about the GI50 (SW480) of the same compound?
Answer: 2.8 µM

Question: For `CCCCCCCCc1ccc(NC(=O)NC2(CC(=O)O)CCC[NH+](C)C2)cc1` (centres unmarked) [Example S9, 3-(Carboxymethyl)-1-methyl-3-(3-(4-octylphenyl)ureido)piperidinium 2,2,2-trifluoroacetate], which IC50 (human CPT1A) is on record?
Answer: 10 to 100 µM

Question: And the “Percentage of Growth Inhibition” value (A549)?
Answer: 0.451%

Question: What about the “Percentage of Growth Inhibition” value (SW480) of the same compound?
Answer: 0.00756%

Question: What does the source list for `CCCCCCCCc1ccc(NC(=O)NC2(CC(=O)O)CCC[N+](C)(C)C2)cc1` (centres unmarked) [Example S10, 3-(carboxymethyl)-1,1-dimethyl-3-(3-(4-octylphenyl)ureido)-piperidinium 2,2,2-trifluoroacetate]?
Answer: IC50 (human CPT1A): 10 to 100 µM; GI50 (A549): 73 µM; GI50 (SW480): 0.7 µM

Question: For `CCCCCCCCc1ccc(NS(=O)(=O)NC2(CC(=O)O)CCCN(C)C2)cc1` (centres unmarked) [Example S15, 3-(carboxymethyl)-1-methyl-3-(N-(4-octylphenyl)sulfamoylamino)-piperidinium 2,2,2-trifluoroacetate], which IC50 (human CPT1A) is on record?
Answer: 10 to 100 µM

Question: And the GI50 (A549)?
Answer: 7.5 µM

Question: And the GI50 (SW480)?
Answer: 36 µM

Question: `CCCCCCCCc1ccc(NS(=O)(=O)NC2(CC(=O)O)CCC[N+](C)(C)C2)cc1` (centres unmarked) [Example S16, 3-(carboxymethyl)-1,1-dimethyl-3-(N-(4-octylphenyl)sulfamoylamino)-piperidinium 2,2,2-trifluoroacetate] was tested. Which IC50 (human CPT1A) did it give?
Answer: 1 to 10 µM

Question: What about the GI50 (A549) of the same compound?
Answer: 6.2 µM

Question: And the GI50 (SW480)?
Answer: 4 µM

Question: With `CCCCCCCCc1ccc(NC(=O)NC2(CC(=O)O)CC[N+](C)(C)C2)cc1` (centres unmarked) [Example S18, 3-(carboxymethyl)-1,1-dimethyl-3-(3-(4-octylphenyl)ureido)-pyrrolidinium 2,2,2-trifluoroacetate] as the compound, how does the IC50 (human CPT1A) read?
Answer: 10 to 100 µM

Question: And the GI50 (A549)?
Answer: 38 µM

Question: What about the GI50 (SW480) of the same compound?
Answer: 1.2 µM

Question: With `CCCCCc1ccc(S(=O)(=O)NC2(CC(=O)O)CC[N+](C)(C)C2)cc1` (centres unmarked) [Example S20, 3-(carboxymethyl)-1,1-dimethyl-3-(4-pentylphenylsulfonamido)-pyrrolidinium 2,2,2-trifluoroacetate] as the compound, how does the IC50 (human CPT1A) read?
Answer: 1 to 10 µM

Question: And the “Percentage of Growth Inhibition” value (SW480)?
Answer: 0.02596%

Question: What does the source list for `CCCCCCCCCCc1ccc(C(=O)NC2(CC(=O)O)CCN(C)C2)cc1` (centres unmarked) [Example S21, 3-(carboxymethyl)-3-(4-decylbenzamido)-1-methylpyrrolidinium 2,2,2-trifluoroacetate]?
Answer: IC50 (human CPT1A): 10 to 100 µM; Percentage of Growth Inhibition (SW480): 0.09568%

Question: Which results are given for `CCCCCCCCCCc1ccc(C(=O)NC2(CC(=O)O)CC[N+](C)(C)C2)cc1` (centres unmarked) [Example S22, 3-(Carboxymethyl)-3-(4-decylbenzamido)-1,1-dimethylpyrrolidinium 2,2,2-trifluoroacetate]?
Answer: IC50 (human CPT1A): 1 to 10 µM; Percentage of Growth Inhibition (SW480): 0.6141%

Question: Which results are given for `CCCCCCCCc1ccc(NC(=O)NC2(CC(=O)O)CNC2)cc1` [Example S23, 3-(carboxymethyl)-3-(3-(4-octylphenyl)ureido)azetidinium 2,2,2-trifluoroacetate]?
Answer: IC50 (human CPT1A): 1000 to 2500 µM; GI50 (A549): > 50 µM; GI50 (SW480): 28 µM

Question: With `CCCCCCCCc1ccc(NC(=O)NC2(CC(=O)O)C[N+](C)(C)C2)cc1` [Example S24, 3-(Carboxymethyl)-1,1-dimethyl-3-(3-(4-octylphenyl)ureido)azetidinium 2,2,2-trifluoroacetate] as the compound, how does the IC50 (human CPT1A) read?
Answer: 10 to 100 µM

Question: What about the GI50 (A549) of the same compound?
Answer: 36 µM

Question: And the GI50 (SW480)?
Answer: 29 µM

Question: How did the IC50 (human CPT1A) turn out when `O=C(O)CC1(NC(=O)c2ccc(C#Cc3ccccc3)o2)CNC1` [Example S26, 3-(carboxymethyl)-3-(5-(phenylethynyl)furan-2-carboxamido)-azetidinium 2,2,2-trifluoroacetate] was run?
Answer: 100 to 1000 µM

Question: What about the “Percentage of Growth Inhibition” value (SW480) of the same compound?
Answer: 0.04449%

Question: With `CCCCCc1ccc(S(=O)(=O)NC2(CC(=O)O)CN(C)C2)cc1` [Example S27, 3-(carboxymethyl)-1-methyl-3-(4-pentylphenylsulfonamido)azetidinium 2,2,2-trifluoroacetate] as the compound, how does the IC50 (human CPT1A) read?
Answer: 10 to 100 µM

Question: And the “Percentage of Growth Inhibition” value (A549)?
Answer: 0.06854%

Question: How did the IC50 (human CPT1A) turn out when `CCCCCc1ccc(S(=O)(=O)NC2(CC(=O)O)C[N+](C)(C)C2)cc1` [Example S29, 3-(carboxymethyl)-1,1-dimethyl-3-(4-pentylphenylsulfonamido)-azetidinium 2,2,2-trifluoroacetate] was run?
Answer: 10 to 100 µM

Question: What about the GI50 (A549) of the same compound?
Answer: > 50 µM

Question: And the GI50 (SW480)?
Answer: > 50 µM
